Assay [1] has as its target T1, SMOX (Homo sapiens, UniProt Q9NWM0).
T1 construct: using 0.3 µg/mL of purified SMOX enzyme and 2 mM of spermine substrate
Description: Mechanism of inhibition and enzyme kinetics (Lineweaver–Burk, global fit). The format is biochemical. As for the experimental part:
The mechanism of enzyme inhibition was determined using the HRP-luminol coupled enzyme assay described above. Reaction velocity (max RLU/sec over 10 min) was measured across multiple substrate and inhibitor concentrations, and individual triplicate values were plotted using a Lineweaver–Burk transformation (double-reciprocal) in GraphPad Prism 9.3 software (Graph-Pad, San Diego, CA, USA).

Assay [2] addresses T1, SMOX. Description: SMOX enzyme activity, HRP-luminol chemiluminescence assay. The assay is classed as biochemical. The following applies: 2 mM spermine. Here is the method: As the catabolism of spermine by SMOX results in the stoichiometric production of H2O2, enzyme activity was quantified by chemiluminescence generated by the horseradish peroxidase-catalyzed oxidation of luminol in 96-well plates (Costar #3912; white, flat bottom), as previously described. All assays were performed in 0.083 M glycine buffer at a pH of 8 using 0.3 µg/mL of purified SMOX enzyme and 2 mM of spermine substrate. Phosphate buffer was not used to prevent the formation of polyamine–phosphate complexes. Enzyme reactions were initiated by the addition of SMOX and HRP to all other assay components; inhibitors were not pre-incubated with enzyme. Triplicate determinations were obtained for each measurement by recording the luminescence (AUC) over 60 s. Hit compounds were then confirmed by monitoring the assay over 600 s. Each triplicate assay point contained a 4th control well to monitor and normalize the data with regards to luminescent decay over time. The compounds were initially screened for activity at a concentration of 20 µM. […] The known SMOX inhibitor, MDL-72527, was used as a control. The hit compounds were then characterized by IC50 and kinetic analyses. Percent inhibition values are reported as triplicate mean % SMOX inhibition ± SD compared to the vehicle control. IC50 values were calculated in GraphPad Prism 9.3 software (Graph-Pad, San Diego, California) using a non-linear regression analysis ([Inhibitor] vs. normalized response—variable slope). Data for all enzyme assays were generated using a SpectraMax M5 plate reader (Molecular Devices) equipped with SOFTmax PRO 7.0.3 software.

The subject of a further assay is SH-SY5Y cells. Description: ROS production following acute excitotoxic stress, CM-H2DCFDA. The format is cell-based, human. The following applies: 8 mM glutamate, 1 h, p < 0.0001. Here is the method:
To measure intracellular ROS production following acute excitotoxic stress, a CM-H2DCFDA (Invitrogen) probe was used. The SH-SY5Y cells were incubated in the presence of dichlorodihydrofluorescein diacetate (CM-H2DCFDA, Invitrogen), 20 µM in HBSS, at 37 °C for 30 min. The cells were then pelleted and washed with HBSS buffer (without phenol red, magnesium, or calcium). Phosphate buffer was not used to prevent the formation of polyamine–phosphate complexes. The cells were then resuspended in 96-well plates (Greiner #655086; black walled, cleat flat bottom) at a concentration of 1 × 10^6 cells/mL in HBSS containing 0–100 µM of inhibitor and 8 mM of glutamate. Dichlorodihydrofluorescein (DCF) fluorescence was monitored over 1 h (ex 488 nm, em 530 nm). The increase in fluorescence was reported as the % activity of control wells in the absence of the inhibitor. Fluorescent readout was obtained using a SpectraMax M5 plate reader (Molecular Devices) equipped with SOFTmax PRO 7.0.3 software. All test compounds were assessed for fluorescent activity at 530 nm prior to experimentation. The statistical analysis was conducted in GraphPad Prism 9.3 software (Graph-Pad, San Diego, California) using a one-way ANOVA with multiple comparisons (α = 0.05).

The results in this text go back to paper PMC9504029, “Identification and Characterization of Novel Small-Molecule SMOX Inhibitors” (Medical Sciences, 2022).

In general, Ki refers to a dissociation constant, usually derived from enzyme kinetics or from competition with a known ligand. Higher therefore signals lower affinity. In general, inhibition refers to the percentage by which the read-out fell short of the control. The IC50 is the point on the concentration scale where inhibition reaches its midpoint. A higher IC50 goes with a need for much substance.

T1 sequence (Q9NWM0 whole entry): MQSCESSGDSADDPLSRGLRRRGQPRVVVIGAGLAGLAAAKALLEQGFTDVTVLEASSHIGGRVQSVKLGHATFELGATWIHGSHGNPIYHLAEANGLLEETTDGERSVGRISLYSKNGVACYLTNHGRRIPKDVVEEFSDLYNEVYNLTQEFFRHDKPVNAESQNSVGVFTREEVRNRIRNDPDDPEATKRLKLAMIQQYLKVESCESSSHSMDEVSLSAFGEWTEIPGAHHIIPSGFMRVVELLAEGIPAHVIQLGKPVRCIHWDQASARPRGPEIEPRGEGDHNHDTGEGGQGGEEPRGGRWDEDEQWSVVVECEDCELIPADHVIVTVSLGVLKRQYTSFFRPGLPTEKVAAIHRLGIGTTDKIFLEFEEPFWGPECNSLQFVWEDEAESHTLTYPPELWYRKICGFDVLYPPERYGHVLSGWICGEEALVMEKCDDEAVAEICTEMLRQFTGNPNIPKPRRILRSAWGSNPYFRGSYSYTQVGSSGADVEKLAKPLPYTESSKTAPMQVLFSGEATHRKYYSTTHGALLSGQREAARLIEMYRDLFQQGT

As to `Cc1cc([C@H](O)CNCCCNC(=N)N)cc(C)c1O` [Compound 6], the Mechanism of inhibition result on SMOX [1] (Lineweaver–Burk analysis) is on record as “competitive”. The compound also showed a Ki at SMOX [1] (global fit for competitive inhibition, inhibitor 0, 0.1, 1 µM) of 1600 nM. Besides, on SMOX [2] (20 µM compound, no pre-incubation, triplicate, read-out: % Inhibition at 20 μM ± SD, SMOX), the inhibition at 20 µM was found to be 99.7 ± 0.1%. The same compound showed an IC50 against SMOX [2] (AUC over 60 s, pH 8) of 540 nM. For the same compound, the “Production of ROS vs vehicle control” value in the assay with SH-SY5Y cells (10 µM compound) is “significantly decreased the production of ROS”; with SH-SY5Y cells (50 µM compound, p = 0.0004 vs 10 µM), “significantly decreased the production of ROS”.
